Where a name gives a salt, the structure may show the parent alone.
Tests used:
[1] = Kinetic solubility in phosphate buffered saline (HPLC); assay type: physicochemical; conditions: phosphate buffered saline (PBS), aqueous buffer, kinetic from dmso stock, 25° C., shaken 2 hours, from 10 mM DMSO stock
Method: The compounds were weighed in an appropriate amount and dissolved in DMSO to prepare a 10 mM stock solution. 30 μL of the stock solution was taken and 970 μL of phosphate buffered saline solution (PBS) was added thereto. The solution was shaken at 25° C. on a thermostatic mixer for 2 hours, and centrifuged at 12000 rpm for 10 minutes. The supernatant was taken, and the kinetic solubility of each compound in phosphate buffered saline solution (PBS) was determined by Waters Acquity Arc HPLC.

hERG channels = hERG channels (Homo sapiens, UniProt Q12809); assay: hERG whole-cell patch clamp in HEK 293 cells stably expressing hERG; assay type: cell-based; conditions: HEK 293 stably expressing hERG, tail current
Method: The HEK 293 cell line (K1236) stably expressing hERG was purchased from Invitrogen. Cells were cultured in 85% DMEM, 10% dialyzed FBS, 0.1 mM NEAA, 25 mM HEPES, 100 U/mL penicillin-streptomycin, 5 μg/mL blasticidin and 400 μg/mL geneticin. Cells were split using TrypLE™ about three times a week, and maintained at a confluence of about 40% to about 80%. Before measurement, cells were cultured at a density of 5×10^5 in a 6 cm culture dish and induced with 1 μg/mL doxycycline for 48 hours.
Extracellular solution (mM): 132 NaCl, 4 KCl, […], 0.5 MgCl2, 11.1 glucose, 10 HEPES (pH 7.35 adjusted with NaOH);
Intercellular solution (mM): 140 KCl, 2 MgCl2, 10 EGTA, 10 HEPES, 5 MgATP (pH 7.35 adjusted with KOH).
The test compounds were formulated in DMSO to prepare a stock solution with a final concentration of 10 mM.
Then, the stock solution of each compound was diluted with DMSO in a 1:3 serial dilution to prepare five intermediate solutions with concentrations of 3, 1, 0.33, 0.12, 0.04 mM or 3.33, 1.11, 0.37, 0.12 mM, respectively.
Before testing, the final working solutions were prepared by diluting the intermediate solutions 1000 times with the extracellular solution. The concentration of DMSO in the working solutions was within a range around 0.1%.
The working solutions at five different concentrations of 3, 1, 0.33, 0.12 and 0.04 μM were used to determine the potential inhibition effect of the compounds on hERG channels and to fit concentration-response curves and calculate IC50.
The coverslip was removed from the cell culture dish and placed on a microscope stage.
A 10× objective was used to locate cells to be observed. An electrode tip was located under the microscope using the 10× objective by focusing above the plane of the cells. Once the tip was in focus, the electrode was advanced downward towards the cells under rough control of the manipulator, while the objective was moved so as to keep the tip in focus.
When the electrode was directly over a cell, the objective was switched to a 40× objective and fine control of the manipulator was used to enable to gradually approach the cell surface.
With gentle suction through a side port of an electrode holder, a giga-ohm seal was formed.
Cfast was used to eliminate the capacitive current consistent with the voltage step. Brief and strong suction was applied repeatedly until the membrane patch ruptured and the whole-cell configuration was obtained.
At this point, membrane potential was set to −60 mV in order to ensure that hERG channels were not open. Then, Cslow on the amplifier was used to remove the spikes of capacitive current.
Holding potential was set to −90 mV for 500 ms. Current was recorded at 20 kHz and filtering was carried out at 10 kHz. Leak current was tested at −80 mV for 500 ms.
The hERG current was elicited by depolarizing at +30 mV for 4.8 seconds, and then the voltage was restored to −50 mV for 5.2 seconds to remove the inactivation and observe the deactivating tail current. The maximum of tail current size was used to determine hERG current amplitude.
Current was recorded for 120 seconds to evaluate the current stability. Only stable cells with recording parameters above thresholds were used for drug administrations.
Firstly, vehicle control was applied to the cells to establish the baseline. […] The hERG current in the presence of the test compound was recorded for about 5 minutes to reach a steady state, and then 5 sweeps were captured. For dose-response testing, multiple compounds were applied to the cells cumulatively from low to high concentrations (multiple compounds were detected simultaneously). The positive control, Dofetilide at a concentration of 150 nM, was also applied to each cell post hERG current measurement at the highest concentration of the test compound, which was used as an internal low control for normalization of percentage inhibition. […]

[2] = UV-VIS absorption spectra (optical property test); assay type: physicochemical; conditions: 10 μM, DMSO solution; for Absorbance × 10^4: at maximum absorption peak
Method: The UV-VIS absorption spectra of the compounds (10 μM, DMSO solution) were detected using Shimadzu UV2600 spectrophotometer, and the maximum absorption peak and absorbance of each compound were obtained.

[3] = MRC5 proliferation test (CellTiter-Glo); assay type: cell-based; conditions: human, MRC5 cells (normal cells), 3 days incubation, read-out: MRC5 (IC50, nM), inhibitory effect on proliferation of normal cells
Description: • MRC5 (ATCC; Cat. No.: CCL-171)
• Culture medium EMEM (ATCC, 30-2003) • Fetal bovine serum (Gibco, 10091148) • Penicillin-streptomycin double antibody (Gibco, S110JV) • DPBS (Gibco, 14190-144) • CellTiter-Glo® assay kit (Promega, G7573) • Trypsin (0.25%) (Gibco, 25200-056) • DMSO (Sigma, D2650)
• Biosafety cabinet (AIRTECH, BSC-1300A II) • Automated cell counter (Life Technologies, countess II) • Multifunctional microplate reader (Biotek, H1FM) • Shaker (Hangzhou Allsheng Instruments Co., Ltd., OS-100) • XLFIT 5.3 (Shanghai Inforstack Co., Ltd.)
For this test method, the following experiment was performed in a biosafety cabinet with the specific steps as follows. • (1) Cells were seeded in a […] (in which the culture medium was EMEM). One day later, the previous culture medium EMEM was poured off, and 5 mL of DPBS was added to wash the cells. Then DPBS was pipetted and discarded. An appropriate amount of trypsin was then added. The plate was placed in a 5% CO2 cell incubator at 37° C. to digestion for about 2 to 5 minutes, and then taken out. New culture medium EMEM was added. The cells were pipetted up and down to resuspend evenly. The cells were then counted by an automated cell counter. • (2) Cells were seeded in columns 1 to 11 of a 96-well plate (Corning, Cat. No. 3610) at a density of 3000 cells per well in 100 μL of culture medium EMEM, and 100 μL of culture medium EMEM free of cells was added into column 12 of the wells. Then, the plate was placed in the 5% CO2 incubator at 37° C. for 24 hours. • (3) Next, the compound of the present invention was 2-fold serially diluted into 8 dose points starting at 10 μM. 10 μL of the serially diluted compound was pipetted and added to 100 μL of cells in columns 1 to 10, and 10 μL of the culture medium EMEM containing 2% DMSO was added to both columns 11 and 12. The plate was placed in the 5% CO2 incubator at 37° C. and incubated for 3 days (Note: column 11 was used as a MAX well with cells but without the compound; column 12 was used as a MIN well without both cell and compound). • (4) The cell viability detection reagent in the above CellTiter-Glo® assay kit was then added to the 96-well plate at 50 μL per well according to the instruction, and shaken on a shaker in dark for 5 to 10 minutes. The cell viability was then measured using a multifunctional microplate reader. Finally, the inhibition of the compound of the present invention on cell proliferation was plotted by XLFIT software, and the half inhibitory concentration, IC50 value of the compound of the present invention was calculated therefrom.

RT112 tumor [4] = assay: Tumor/background ratio in subcutaneous RT112 tumor model mice; assay type: in vivo; conditions: 2 mpk intraperitoneal, 48 hours after injection
Description: The subcutaneous tumor model mice inoculated with RT112 tumor were selected. Each compound was administrated at a dose of 2 mpk, and intraperitoneally injected.

[5] = tested on: human bladder cancer cell line UM-UC-3; assay: In vitro imaging effect test with addition of BSP, UM-UC-3; assay type: cell-based; conditions: 250 μM BSP, compound 1-20 μM with surfactin 1:5, 30 minutes
Method: UM-UC-3 (1.5×10^4/well) were cultured in EMEM medium (containing 10% fetal bovine serum (FBS) and 1% antibiotics (100 U/mL penicillin and 100 U/mL streptomycin)) and seeded in a 96-well plate in advance. The plate was cultured in a 5% CO2 cell culture incubator at 37° C. overnight. The following day, the culture medium was sucked away, and 250 μM of BSP was added to the test wells and preconditioned for 10 minutes, followed by addition of the culture medium containing an appropriate concentration (1-20 μM) of the compound and surfactin (the molar ratio of the test compound to the surfactin being 1:5) with or without 250 μM of BSP, and then incubated for 30 minutes. The cells were rinsed three times with PBS solution, and the near-infrared fluorescence intensity in the bladder cancer cells was observed using an integrated fluorescence microscopic imaging system from Keyence. The conditions for near-infrared photography were Ex=775/50 nm and Em=845/55 nm.

RT112 tumor [6] = conditions: 2 mg/kg or 0.4 mg/kg intraperitoneal, 48 hours after injection
Method: All animal experiments were conducted exactly in accordance with the guidelines for the care and use of animals issued by the regional animal committee. A mouse model of xenograft RT112 tumor was established by subcutaneous injection of RT112 cell suspension (2×10^6 cells/mouse, 0.1 ml PBS) into the upper right limb of 8- to 10-week-old BALB/C female nude mice (20 to 25 g). BABL/c nude mice (15 to 20 g) were purchased from Beijing Vital River Laboratory Animal Technology Co., Ltd. For in vivo near-infrared fluorescence (NIRF) imaging, the RT112 tumor-bearing mice were intraperitoneally injected with different doses of free compounds (2 mg/kg or 0.4 mg/kg), respectively. At 48 hours after injection, near-infrared imaging was performed using an IVIS Lumina spectroscopic imaging system (excitation/emission, 780/845 nm).

hERG channels, sequence (Q12809 whole entry): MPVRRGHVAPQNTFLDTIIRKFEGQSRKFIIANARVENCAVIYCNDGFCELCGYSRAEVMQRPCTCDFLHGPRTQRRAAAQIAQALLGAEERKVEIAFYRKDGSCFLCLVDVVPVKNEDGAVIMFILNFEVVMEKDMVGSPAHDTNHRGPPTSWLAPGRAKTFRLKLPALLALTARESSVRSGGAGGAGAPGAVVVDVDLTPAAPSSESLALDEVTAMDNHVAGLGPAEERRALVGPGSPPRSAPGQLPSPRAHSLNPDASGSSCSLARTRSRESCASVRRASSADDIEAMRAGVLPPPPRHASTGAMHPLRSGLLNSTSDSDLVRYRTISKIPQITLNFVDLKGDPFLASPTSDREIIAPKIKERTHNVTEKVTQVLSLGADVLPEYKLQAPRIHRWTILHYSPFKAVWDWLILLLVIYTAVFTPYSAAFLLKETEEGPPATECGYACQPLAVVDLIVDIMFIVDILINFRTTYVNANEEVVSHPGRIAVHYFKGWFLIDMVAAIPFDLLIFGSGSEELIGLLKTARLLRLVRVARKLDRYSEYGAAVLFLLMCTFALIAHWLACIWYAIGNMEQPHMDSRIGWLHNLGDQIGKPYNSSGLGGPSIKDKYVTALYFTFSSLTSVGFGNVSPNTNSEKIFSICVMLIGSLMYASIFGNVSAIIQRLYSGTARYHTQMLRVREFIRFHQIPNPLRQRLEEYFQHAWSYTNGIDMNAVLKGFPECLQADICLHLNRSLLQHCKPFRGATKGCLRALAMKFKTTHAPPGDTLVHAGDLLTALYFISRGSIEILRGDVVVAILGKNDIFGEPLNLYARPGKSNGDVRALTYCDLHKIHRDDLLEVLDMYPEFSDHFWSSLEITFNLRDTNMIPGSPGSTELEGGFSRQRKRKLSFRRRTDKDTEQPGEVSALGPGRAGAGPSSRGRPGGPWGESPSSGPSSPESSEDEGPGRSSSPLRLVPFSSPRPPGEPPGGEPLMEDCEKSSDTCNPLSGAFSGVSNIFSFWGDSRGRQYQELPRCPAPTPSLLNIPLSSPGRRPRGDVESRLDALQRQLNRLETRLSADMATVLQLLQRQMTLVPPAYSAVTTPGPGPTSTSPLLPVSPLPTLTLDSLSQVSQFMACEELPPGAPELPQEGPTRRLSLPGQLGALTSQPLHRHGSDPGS

Structure (SMILES): COCCOCCN1/C(=C/C=C2\CCCC(/C=C/C3=[N+](CCOCCOCCC(=O)O)c4ccccc4C3(C)C)=C2Cl)C(C)(C)c2ccccc21 [Example 68, 1-(2-(2-(2-carboxyethoxy)ethoxy)ethyl)-2-((E)-2-((E)-2-chloro-3-(2-((E)-1-(2-(2-methoxyethoxy)ethyl)-3,3-dimethylindolin-2-ylidene)ethenyl)cyclohex-1-en-1-yl)ethenyl)-3,3-dimethyl-3H-indol-1-ium 2,2,2-trifluoroacetate]
- solubility kinetic at 2 h [1]: > 250 µg/mL
- IC50 (hERG channels): 0.89 µM
- Absorption peak [2]: 796 nm
- Absorbance × 10^4 [2]: 2.74
- IC50 at 3 days [3]: > 10000 nM
- Tumor/background ratio (RT112 tumor [4]): 2.5

Structure (SMILES): COCCOCCOCCOCCN1/C(=C/C=C2\CCCC(/C=C/C3=[N+](CCOCCOCCC(=O)O)c4ccccc4C3(C)C)=C2Cl)C(C)(C)c2ccccc21 [Example 73, 1-(2-(2-(2-carboxyethoxy)ethoxy)ethyl)-2-((E)-2-((E)-2-chloro-3-(2-((E)-3,3-dimethyl-1-(2,5,8,11-tetraoxatridecan-13-yl)indolin-2-ylidene)ethenyl)cyclohex-1-en-1-yl)ethenyl)-3,3-dimethyl-3H-indol-1-ium Chloride]
- solubility kinetic at 2 h [1]: > 250 µg/mL
- IC50 (hERG channels): 1.66 µM
- Absorption peak [2]: 796.5 nm
- Absorbance × 10^4 [2]: 2.15
- IC50 at 3 days [3]: > 10000 nM
- Tumor/background ratio (RT112 tumor [4]): 2.7

Structure (SMILES): C[N+]1=C(/C=C/C2=C(Cl)C(=C/C=C3/N(CCOCCC(=O)Oc4ccccc4)c4ccccc4C3(C)C)/CCC2)C(C)(C)c2ccccc21.[Cl-] [Example 95]
- solubility kinetic at 2 h [1]: 99 µg/mL
- IC50 (hERG channels): 0.98 µM
- Absorption peak [2]: 793.5 nm
- Absorbance × 10^4 [2]: 2.41
- IC50 at 3 days [3]: > 10000 nM
- Tumor/background ratio (RT112 tumor [4]): 2.8

Structure (SMILES): CC[N+]1=C(/C=C/C2=C(Cl)C(=C/C=C3/N(CCOCCC(=O)Oc4ccccc4)c4ccccc4C3(C)C)/CCC2)C(C)(C)c2ccccc21 [Example 7, 2-((E)-2-((E)-2-chloro-3-(2-((E)-3,3-dimethyl-1-(2-(3-oxo-3-phenoxypropoxy)ethyl)indolin-2-ylidene)ethenyl)cyclohex-1-en-1-yl)ethenyl)-1-ethyl-3,3-dimethyl-3H-indol-1-ium Trifluoroacetate]
- Absorption peak [2]: 794.5 nm
- Absorbance × 10^4 [2]: 1.92
- Uptake by UM-UC-3 with or without BSP [5]: may be weakened or enhanced by BSP
- Enrichment at the tumor sites (NIR fluorescence) (RT112 tumor [6]): specifically enriched at the tumor sites

Structure (SMILES): CN(C)C1CC(/C=C/C2=[N+](C)c3ccccc3C2(C)C)=C(Cl)C(=C/C=C2/N(CCCCCC(=O)O)c3ccccc3C2(C)C)/C1 (stereo not shown) [Example 87]
- solubility kinetic at 2 h [1]: 38 µg/mL
- IC50 (hERG channels): 1.42 µM
- Absorption peak [2]: 785 nm
- Absorbance × 10^4 [2]: 1.91
- IC50 at 3 days [3]: > 10000 nM
- Tumor/background ratio (RT112 tumor [4]): 3.3

Structure (SMILES): CC[N+]1=C(/C=C/C2=C(Cl)C(=C/C=C3/N(CCCCCC(=O)Oc4ccccc4)c4ccccc4C3(C)C)/CCC2)C(C)(C)c2ccccc21.[Cl-] [Comparative Example 1, 2-((E)-2-((E)-2-chloro-3-(2-((E)-3,3-dimethyl-1-(6-oxo-6-phenoxyhexyl)indolin-2-ylidene)ethenyl)cyclohex-1-en-1-yl)ethenyl)-1-ethyl-3,3-dimethyl-3H-indol-1-ium Chloride, reference compound]
- solubility kinetic at 2 h [1]: 5 µg/mL
- IC50 (hERG channels): < 0.12 µM
- Absorption peak [2]: 794.5 nm
- Absorbance × 10^4 [2]: 2.16
- IC50 at 3 days [3]: 2700 nM
- Tumor/background ratio (RT112 tumor [4]): 2.4

Structure (SMILES): COCCOCCOCCN1/C(=C/C=C2\CCCC(/C=C/C3=[N+](CCOCCOCCC(=O)O)c4ccccc4C3(C)C)=C2Cl)C(C)(C)c2ccccc21 [Example 70]
- solubility kinetic at 2 h [1]: > 250 µg/mL
- IC50 (hERG channels): 0.568 µM
- Absorption peak [2]: 796.5 nm
- Absorbance × 10^4 [2]: 2.09
- IC50 at 3 days [3]: > 10000 nM
- Tumor/background ratio (RT112 tumor [4]): 2.7

— patent US20260191998A1, “INDOLE PHTHALOCYANINE COMPOUND, PREPARATION METHOD THEREFOR, AND USE THEREOF IN TUMOR DIAGNOSIS IMAGING” (JIANGSU YAHONG MEDITECH CO., LTD., priority 2022, published 2026)
